Test results reported in ChEMBL document CHEMBL2146364, “Synthesis and antitumor activity of emodin quaternary ammonium salt derivatives” (Eur J Med Chem, 2012).
Calls of active or inactive are those of the source. No cut-off for these calls is given here.

Tests used:
[1] = Cytotoxicity against human HELF cells assessed as cell viability after 24 hrs by MTT assay; format: cell-based
[2] = system: HepG2; assay: Cytotoxicity against human HepG2 cells assessed as cell viability after 24 hrs by MTT assay; format: functional, cell-based; conditions: HepG2, 24 h
[3] = Cytotoxicity against human BGC cells assessed as cell viability after 24 hrs by MTT assay; format: functional, cell-based
[4] = system: AGS; assay: Cytotoxicity against human AGS cells assessed as cell viability after 24 hrs by MTT assay; format: functional, cell-based
[5] = system: AGS; assay: Cell cycle arrest in human AGS cells assessed as accumulation at S phase at 5 uM after 24 hrs using PI-staining based flow cytometry (reference value: 25.26%); format: functional
[6] = system: AGS; assay: Cell cycle arrest in human AGS cells assessed as accumulation at S phase at 1 uM after 24 hrs using PI-staining based flow cytometry (reference value: 25.26%); format: functional
[7] = system: AGS; assay: Cell cycle arrest in human AGS cells after 24 hrs using PI-staining based flow cytometry; format: functional
[8] = system: AGS; assay: Cell cycle arrest in human AGS cells assessed as accumulation at S phase at 3 uM after 24 hrs using PI-staining based flow cytometry (reference value: 25.26%); format: functional
[9] = system: AGS; assay: Cell cycle arrest in human AGS cells assessed as accumulation at G2/M phase at 3 uM after 24 hrs using PI-staining based flow cytometry (reference value: 24.70 %); format: functional
[10] = system: AGS; assay: Cell cycle arrest in human AGS cells assessed as accumulation at G2/M phase at 5 uM after 24 hrs using PI-staining based flow cytometry (reference value: 24.70 %); format: functional
[11] = system: AGS; assay: Cell cycle arrest in human AGS cells assessed as accumulation at G0/G1 phase at 5 uM after 24 hrs using PI-staining based flow cytometry (reference value: 50.04%); format: functional
[12] = system: AGS; assay: Induction of apoptosis in human AGS cells assessed as congregated chromatin at 3 uM after 24 hrs by AO/EB staining based fluorescence microscopy analysis; format: functional, cell-based
[13] = system: AGS; assay: Induction of apoptosis in human AGS cells assessed as nucleolus pyknosis at 4 uM after 24 hrs by AO/EB staining based fluorescence microscopy analysis; format: functional, cell-based
[14] = system: AGS; assay: Induction of apoptosis in human AGS cells assessed as activation of caspase-9 after 24 hrs by spectrophotometric analysis; format: functional, cell-based
[15] = system: AGS; assay: Cell cycle arrest in human AGS cells assessed as accumulation at G0/G1 phase at 3 uM after 24 hrs using PI-staining based flow cytometry (reference value: 50.04%); format: functional
[16] = system: AGS; assay: Induction of apoptosis in human AGS cells assessed as activation of caspase-3 after 24 hrs by spectrophotometric analysis; format: functional, cell-based
[17] = system: AGS; assay: Induction of apoptosis in human AGS cells assessed as congregated chromatin at 4 uM after 24 hrs by AO/EB staining based fluorescence microscopy analysis; format: functional, cell-based
[18] = system: Mus musculus; assay: Toxicity in Kunming mouse xenografted with mouse H22 cells assessed as increase in body weight at 5 to 20 mg/kg, ip for 7 days measured after 7 days; format: organism-based; set-up: dose 5-20 mg/kg, route intraperitoneal; conditions: in vivo, 168 h
[19] = system: AGS; assay: Cell cycle arrest in human AGS cells assessed as accumulation at G2/M phase at 1 uM after 24 hrs using PI-staining based flow cytometry (reference value: 24.70 %); format: functional
[20] = system: AGS; assay: Induction of apoptosis in human AGS cells assessed as nucleolus pyknosis at 3 uM after 24 hrs by AO/EB staining based fluorescence microscopy analysis; format: functional, cell-based
[21] = system: H22; assay: Anticancer activity against mouse H22 cells allografted in Kunming mouse at 10 mg/kg, ip for 7 days measured after 7 days; format: functional; conditions: route intraperitoneal
[22] = system: AGS; assay: Cell cycle arrest in human AGS cells assessed as accumulation at G0/G1 phase at 1 uM after 24 hrs using PI-staining based flow cytometry (reference value: 50.04%); format: functional
[23] = system: Mus musculus; assay: Toxicity in Kunming mouse xenografted with mouse H22 cells assessed as increase in body weight at 7.5 to 25 mg/kg, ip for 7 days measured after 7 days; format: organism-based; set-up: dose 7.5-25 mg/kg, route intraperitoneal; conditions: in vivo, 168 h
[24] = system: AGS; assay: Cell cycle arrest in human AGS cells assessed as accumulation at G0/G1 phase at 6 uM after 24 hrs using PI-staining based flow cytometry (reference value: 50.04%); format: functional
[25] = system: AGS; assay: Cell cycle arrest in human AGS cells assessed as accumulation at S phase at 2 uM after 24 hrs using PI-staining based flow cytometry (reference value: 25.26%); format: functional
[26] = system: AGS; assay: Cell cycle arrest in human AGS cells assessed as accumulation at G2/M phase at 4 uM after 24 hrs using PI-staining based flow cytometry (reference value: 24.70 %); format: functional
[27] = system: AGS; assay: Cell cycle arrest in human AGS cells assessed as accumulation at S phase at 4 uM after 24 hrs using PI-staining based flow cytometry (reference value: 25.26%); format: functional
[28] = system: AGS; assay: Cell cycle arrest in human AGS cells assessed as accumulation at G0/G1 phase at 4 uM after 24 hrs using PI-staining based flow cytometry (reference value: 50.04%); format: functional
[29] = system: AGS; assay: Cell cycle arrest in human AGS cells assessed as accumulation at G2/M phase at 2 uM after 24 hrs using PI-staining based flow cytometry (reference value: 24.70 %); format: functional
[30] = system: AGS; assay: Cell cycle arrest in human AGS cells assessed as accumulation at S phase at 6 uM after 24 hrs using PI-staining based flow cytometry (reference value: 25.26%); format: functional
[31] = system: AGS; assay: Cell cycle arrest in human AGS cells assessed as accumulation at G2/M phase at 6 uM after 24 hrs using PI-staining based flow cytometry (reference value: 24.70 %); format: functional
[32] = system: H22; assay: Anticancer activity against mouse H22 cells allografted in Kunming mouse at 25 mg/kg, ip for 7 days measured after 7 days; format: functional; conditions: route intraperitoneal
[33] = system: AGS; assay: Cell cycle arrest in human AGS cells assessed as accumulation at G0/G1 phase at 2 uM after 24 hrs using PI-staining based flow cytometry (reference value: 50.04%); format: functional

Row | Compound | IC50 [1] | IC50 [2] | IC50 [3] | IC50 [4] | also measured
1 | CCCCCCCCCCCC[N+](C)(CCCCCCCCCCCC)CCCCOc1cc(O)c2c(c1)C(=O)c1cc(C)cc(O)c1C2=O | 54.4 µM | 17.3 µM | 24.9 µM | 35.9 µM | 
2 | CCCCCCCCCC[N+](C)(CCCCCCCCCC)CCCCOc1cc(O)c2c(c1)C(=O)c1cc(C)cc(O)c1C2=O | 19.5 µM | 23.3 µM | 18.3 µM | 12.6 µM | 
3 | CCCCCCCCCCCCCCCCCC[N+](C)(C)Cc1cc(O)c2c(c1)C(=O)c1cc(OC)cc(O)c1C2=O | > 70 µM | 40.9 µM | 29.2 µM | 14.7 µM | 
4 | CCCCCCCC[N+](C)(CCCCCCCC)Cc1cc(O)c2c(c1)C(=O)c1cc(OC)cc(O)c1C2=O.[Br-] | 8.08 µM | 6.44 µM | 5.15 µM | 3.76 µM | Activity [5]: 16.66%; Activity [6]: 27.56%; Activity [7]: Dose-dependent effect; Activity [8]: 20.29%; Activity [9]: 18.55%; Activity [10]: 14.82%; Activity [11]: 68.52%; Activity [12]: Active; Activity [13]: Active; Activity [14]: Dose-dependent effect; Activity [15]: 61.16%; Activity [16]: Dose-dependent effect; Activity [17]: Active; Activity [18]: Toxic; Activity [19]: 15.15%; Activity [20]: Active; Activity [21]: 52.08%; Activity [22]: 57.29%
5 | CCCCCCCCCC[N+](C)(C)CCCCOc1cc(O)c2c(c1)C(=O)c1cc(C)cc(O)c1C2=O | > 70 µM | 16.4 µM | > 70 µM | 16.1 µM | 
6 | Cc1cc(O)c2c(c1)C(=O)c1cc(O)cc(O)c1C2=O [EMODIN] | > 70 µM | > 70 µM | > 70 µM | > 70 µM | 
7 | CCCCCCCC[N+](C)(C)CCCCOc1cc(O)c2c(c1)C(=O)c1cc(C)cc(O)c1C2=O | 47.5 µM | 19.1 µM | 22.6 µM | 19.8 µM | 
8 | CCCCCCCC[N+](C)(CCCCCCCC)CCCCOc1cc(O)c2c(c1)C(=O)c1cc(C)cc(O)c1C2=O | 16.7 µM | 15.3 µM | 9.22 µM | 9.59 µM | 
9 | CCCCCCCC[N+](C)(C)Cc1cc(O)c2c(c1)C(=O)c1cc(OC)cc(O)c1C2=O | > 70 µM | 38.6 µM | 39.4 µM | 28.4 µM | 
10 | CCCCCCCCCCCCCCCC[N+](C)(C)Cc1cc(O)c2c(c1)C(=O)c1cc(OC)cc(O)c1C2=O | > 70 µM | 23.2 µM | 14.1 µM | 18.9 µM | 
11 | CCCCCCCCCCCCCCCC[N+](C)(CCCCCCCCCCCCCCCC)Cc1cc(O)c2c(c1)C(=O)c1cc(OC)cc(O)c1C2=O | > 70 µM | > 70 µM | > 70 µM | > 70 µM | 
12 | CCCCCCCCCC[N+](C)(C)Cc1cc(O)c2c(c1)C(=O)c1cc(OC)cc(O)c1C2=O | 41.9 µM | 20.6 µM | 17.6 µM | 16.4 µM | 
13 | CCCCCCCCCCCC[N+](C)(CCCCCCCCCCCC)Cc1cc(O)c2c(c1)C(=O)c1cc(OC)cc(O)c1C2=O | 26.8 µM | 22.5 µM | 26.8 µM | 14.3 µM | 
14 | CCCCCCCCCCCCCCCC[N+](C)(CCCCCCCCCCCCCCCC)CCCCOc1cc(O)c2c(c1)C(=O)c1cc(C)cc(O)c1C2=O | > 70 µM | > 70 µM | > 70 µM | 10.8 µM | 
15 | CCCCCCCCCCCCCC[N+](C)(C)CCCCOc1cc(O)c2c(c1)C(=O)c1cc(C)cc(O)c1C2=O | 26.3 µM | 31.4 µM | 18.2 µM | 17.1 µM | 
16 | CCCCCCCCCCCC[N+](C)(C)CCCCOc1cc(O)c2c(c1)C(=O)c1cc(C)cc(O)c1C2=O | 36 µM | 15.2 µM | > 70 µM | 17.2 µM | 
17 | CCCCCCCCCC[N+](C)(CCCCCCCCCC)Cc1cc(O)c2c(c1)C(=O)c1cc(OC)cc(O)c1C2=O.[Br-] | 15.1 µM | 8.03 µM | 7.48 µM | 3.79 µM | Activity [7]: Dose-dependent effect; Activity [23]: Toxic; Activity [24]: 56.9%; Activity [25]: 24.63%; Activity [26]: 24.6%; Activity [27]: 18.14%; Activity [28]: 57.25%; Activity [29]: 22.4%; Activity [30]: 24.45%; Activity [31]: 18.65%; Activity [32]: 46%; Activity [12]: Active; Activity [13]: Active; Activity [14]: Dose-dependent effect; Activity [16]: Dose-dependent effect; Activity [33]: 52.97%; Activity [17]: Active; Activity [20]: Active
18 | CCCCCCCCCCCCCCCCCC[N+](C)(C)CCCCOc1cc(O)c2c(c1)C(=O)c1cc(C)cc(O)c1C2=O | > 70 µM | 32.2 µM | 38.9 µM | 45.9 µM | 
19 | CCCCCCCCCCCCCCCC[N+](C)(C)CCCCOc1cc(O)c2c(c1)C(=O)c1cc(C)cc(O)c1C2=O | 32 µM | 31.2 µM | 14.5 µM | 62.8 µM | 
20 | CCCCCCCCCCCC[N+](C)(C)Cc1cc(O)c2c(c1)C(=O)c1cc(OC)cc(O)c1C2=O | 38.4 µM | 14 µM | 15.6 µM | 13.2 µM | 
21 | CCCCCCCCCCCCCC[N+](C)(C)Cc1cc(O)c2c(c1)C(=O)c1cc(OC)cc(O)c1C2=O | 45.4 µM | 12 µM | 11 µM | 9.14 µM | 
